“Also recorded” adds a separate entry of the source.
Legend:
[1] = Cell-free MFF fluorescence as a function of Fe2+ concentration; type: physicochemical
Procedure: (§1) MFF (0-10 μM) was dissolved in medium at the presumed intramitochondrial pH (pH 8.0, 37° C.) (FIG. 2, left panel). Fluorescence of MFF (1 μM) was measured as a function of increasing ferrous ammonium sulfate (Fe^2+) and ferric chloride (Fe^3+) concentration from freshly prepared stock solutions (1 mM). Fluorescence intensity is shown in arbitrary units (a.u.). (FIG. 2, right panel).

[2] = system: mitochondrial chelatable Fe^2+ in cultured rat hepatocytes; test: Mitoferrofluor quenching after mitochondrial Fe2+ uptake; type: cell-based
Procedure: (§2) Rhodamine 123 (Rh123) and MitoTracker Green (MTG) were obtained from Molecular Probes. Primary rat hepatocytes were isolated from overnight-fasted male Sprague-Dawley rats (200-250 g) by collagenase perfusion. Hepatocytes were plated on Type 1 collagen-coated MatTek dishes at a density of 300,000 cells per well and cultured overnight in Waymouth's MB-742/1 growth medium containing 27 mM NaHCO3, 2 mM L-glutamine, 10% fetal calf serum, 100 nM insulin and 10 nM dexamethasone, pH 7.4 at 37° C. in 5% CO2/air.
(§3) Confocal images of hepatocytes were taken with a Zeiss LSM 510 inverted laser scanning confocal microscope (Carl Zeiss, Germany) using a 63×oil immersion objective.
Overnight-cultured rat hepatocytes were loaded with MFF (1 μM for 20 min), washed out and incubated for 60 min. Rh123 (0.5 μM for 20 min) was then loaded. Fe^2+ was added as ferrous ammonium sulfate (10 mM). Fe^2+ addition quenched MFF fluorescence by ˜72%.

[3] = system: mitochondria of cultured rat hepatocytes; test: Mitochondrial accumulation and retention of probe after depolarization, confocal imaging; type: cell-based; conditions: for retention by mitochondria after depolarization: rat hepatocytes, CCCP 10 μM, oligomycin 10 μg/ml, myxothiazol 10 μM
Procedure: as §2, §3
Overnight-cultured rat hepatocytes were loaded with MFF (1 μM for 20 min), washed and incubated for 60 min.
Overnight-cultured rat hepatocytes were loaded with MFF and MTG (both 1 μM for 20 min), washed and incubated for 60 min. Cells were then incubated with 5 mM fructose and imaged “BEFORE” and “AFTER” addition of CCCP, oligomycin and myxothiazol. […] MFF fluorescence changed essentially identically to MTG consistent with covalent labeling of mitochondrial proteins by MFF.

[4] = Absorption, excitation and emission spectra of mitoferrofluor; type: physicochemical
[5] = Cell-free MFF fluorescence as a function of Fe3+ concentration; type: physicochemical; conditions: cell free medium
Procedure: as §1

[6] = system: mitochondrial chelatable Fe^2+ in cultured rat hepatocytes; test: Mitoferrofluor fluorescence quenching after lysosomal iron release with bafilomycin A1; type: cell-based; conditions: 120 min after bafilomycin A1, vs vehicle (DMSO)
Procedure: as §2, §3
Overnight-cultured rat hepatocytes were loaded with MFF and then rhodamine 123, as described in Example 6. […] Panel C represents a quantitative analysis of 10 random fields (*p<0.05 vs vehicle, n=3).

Compound | IC50 ([1]; MFF 1 μM, pH 8.0, 37° C., read-out: IC50 of Fe^2+ quenching of MFF fluorescence) | quenching of MFF fluorescence by Fe^2+ ([1]; cell free medium) | decrease of intramitochondrial MFF fluorescence ([2]; MFF-loaded hepatocytes, excess extracellular Fe^2+ added) | quenching of MFF fluorescence by Fe^2+ addition ([2]; rat hepatocytes, MFF 1 μM for 20 min, ferrous ammonium sulfate 10 mM) | accumulation into mitochondria ([3]; cultured rat hepatocytes) | retention by mitochondria after depolarization [3] | fluorescence emission peak [4] | fluorescence excitation peak [4] | extinction coefficient ([4]; at 566 nm) | quenching of MFF fluorescence by Fe^3+ [5] | quenching of mitochondrial MFF fluorescence after bafilomycin A1 [6]
CCN(CC)c1ccc2c(-c3ccccc3C(=O)OCCCOc3cc(OCCCBr)cc(C(=O)Nc4cc5cccnc5c5ncccc45)c3)c3ccc(=[N+](CC)CC)cc-3oc2c1.[Br-] [MFF, N-(9-(2-((3-(3-((1,10-phenanthrolin-5-yl)carbamoyl)-5-(3-bromopropoxy)phenoxy)propoxy)carbonyl)phenyl)-6-(diethylamino)-3H-xanthen-3-ylidene)-N-ethylethanaminium bromide] | 1000 to 2000 nM | strongly and stoichiometrically quenched by Fe^2+ | ~80% | ~72% | selectively accumulated into mitochondria | retained by mitochondria; also recorded: MFF fluorescence was retained; also recorded: retained MFF to the same extent as MTG | 598 nm | 554 nm | 40,400 cm^−1/M | not by Fe^3+; also recorded: not Fe^3+ quenched | became quenched; also recorded: quenched mitochondrial MFF fluorescence
CN1/C(=C/C=C/c2n(Cc3ccc(CCl)cc3)c3cc(Cl)c(Cl)cc3[n+]2Cc2ccc(CCl)cc2)Oc2ccccc21 [MTG, reference compound] |  |  |  |  |  | some release of MTG into the cytosol |  |  |  |  | 

From US9970947B2, “Fluorescent probe” (MUSC FOUNDATION FOR RESEARCH DEVELOPMENT, priority 2016, dated 2018)
